From patent US20050096327A1, “Novel norepinephrine reuptake inhibitors for the treatment of central nervous system disorders” (priority 2003, published 2005)

Legend:
[1] = target: T1, human norepinephrine transporter (Homo sapiens, UniProt P23975); experiment: hNET receptor binding ([125I]-RTI-55, membranes of transfected HEK-293 cells); settings: 50 pM [125I]-RTI-55, 90 min room temperature; IC50 converted by Cheng-Prusoff
T1 construct: host or cells: HEK-293
Experimental: (§1) Cell pastes of HEK-293 cells transfected with the human norepinephrine transporter were supplied by the Pfizer Ann Arbor Protein Expression and Production group. Pellets were resuspended in 400 to 700 ml of Krebs-HEPES assay buffer (25 mM HEPES, 122 mM NaCl, 3 mM KCl, 1.2 mM MgSO4, 1.3 mM CaCl2, and 11 mM glucose, pH 7.4) with a Polytron homogenizer at setting 7 for 30 sec. Aliquots of membranes (5 mg/ml protein) were stored in liquid nitrogen until used.
The binding assay was set up in Beckman deep-well polypropylene plates with a total volume of 250 μl containing: drug (10^−5M to 10^−12M), cell membranes, and 50 pM [^125I]-RTI-55 (Perkin Elmer, NEX-272; specific activity 2200 Ci/mmol). The reaction was incubated by gentle agitation for 90 min at room temperature and was terminated by filtration through Whatman GF/C filter plates using a Brandel 96-well plate harvester. Scintillation fluid (100 μl) was added to each well, and bound [^125I]-RTI-55 was determined using a Wallac Trilux Beta Plate Counter. Test compounds were run in duplicate, and specific binding was defined as the difference between binding in the presence and absence of 10 μM desipramine.
Excel and GraphPad Prism software were used for data calculation and analysis. IC50 values were converted to Ki values using the Cheng-Prusoff equation. The Ki values for the hNET are reported below in Table 1.

[2] = target: T2, human serotonin transporter (Homo sapiens, UniProt P31645); experiment: hSERT receptor binding ([125I]-RTI-55, membranes of transfected HEK-293 cells); settings: 50 pM [125I]-RTI-55, 90 min room temperature; IC50 converted by Cheng-Prusoff
T2 construct: host or cells: HEK-293
T2 sequence (P31645 whole entry): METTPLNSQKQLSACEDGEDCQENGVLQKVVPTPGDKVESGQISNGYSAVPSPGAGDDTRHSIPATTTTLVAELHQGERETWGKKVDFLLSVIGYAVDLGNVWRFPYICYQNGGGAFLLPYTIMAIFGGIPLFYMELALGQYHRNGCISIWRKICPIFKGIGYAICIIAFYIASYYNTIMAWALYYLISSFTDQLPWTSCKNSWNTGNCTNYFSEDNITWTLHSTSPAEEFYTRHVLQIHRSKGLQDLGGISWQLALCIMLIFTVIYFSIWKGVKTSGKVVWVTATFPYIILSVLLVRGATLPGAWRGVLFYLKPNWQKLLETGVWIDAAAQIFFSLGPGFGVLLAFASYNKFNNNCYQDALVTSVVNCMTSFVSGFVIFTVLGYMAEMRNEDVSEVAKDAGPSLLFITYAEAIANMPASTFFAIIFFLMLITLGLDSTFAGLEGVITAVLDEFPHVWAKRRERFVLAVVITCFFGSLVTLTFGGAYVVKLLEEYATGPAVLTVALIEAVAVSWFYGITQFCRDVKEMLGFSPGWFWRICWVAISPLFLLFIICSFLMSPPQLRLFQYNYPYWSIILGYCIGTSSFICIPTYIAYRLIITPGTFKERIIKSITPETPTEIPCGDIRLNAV
Experimental: as §1, with “serotonin” for “norepinephrine”, “Group.” for “group.”, “mL” for “ml”, “Setting” for “setting”, “seconds.” for “sec.”, “(˜2.5 mg/mL” for “(5 mg/ml”
Assays were set up in FlashPlates pre-coated with 0.1% PEI in a total volume of 250 μL containing: drug (10^−5M to 10^−12M), cell membranes, and 50 pM [^125I]-RTI-55 (Perkin Elmer, NEX-272; specific activity 2200 Ci/mmol). The reaction was incubated and gently agitated for 90 minutes at room temperature, and terminated by removal of assay volume. Plates were covered, and bound [^125I]-RTI-55 was determined using a Wallac Trilux Beta Plate Counter. Test compounds were run in duplicate, and specific binding was defined as the difference between binding in the presence and absence of 10 μM citalopram.
Excel and GraphPad Prism software were used for data calculation and analysis. IC50 values were converted to Ki values using the Cheng-Prusoff equation. The Ki values for the hSERT are reported below in Table 1.

T1 sequence (P23975 whole entry): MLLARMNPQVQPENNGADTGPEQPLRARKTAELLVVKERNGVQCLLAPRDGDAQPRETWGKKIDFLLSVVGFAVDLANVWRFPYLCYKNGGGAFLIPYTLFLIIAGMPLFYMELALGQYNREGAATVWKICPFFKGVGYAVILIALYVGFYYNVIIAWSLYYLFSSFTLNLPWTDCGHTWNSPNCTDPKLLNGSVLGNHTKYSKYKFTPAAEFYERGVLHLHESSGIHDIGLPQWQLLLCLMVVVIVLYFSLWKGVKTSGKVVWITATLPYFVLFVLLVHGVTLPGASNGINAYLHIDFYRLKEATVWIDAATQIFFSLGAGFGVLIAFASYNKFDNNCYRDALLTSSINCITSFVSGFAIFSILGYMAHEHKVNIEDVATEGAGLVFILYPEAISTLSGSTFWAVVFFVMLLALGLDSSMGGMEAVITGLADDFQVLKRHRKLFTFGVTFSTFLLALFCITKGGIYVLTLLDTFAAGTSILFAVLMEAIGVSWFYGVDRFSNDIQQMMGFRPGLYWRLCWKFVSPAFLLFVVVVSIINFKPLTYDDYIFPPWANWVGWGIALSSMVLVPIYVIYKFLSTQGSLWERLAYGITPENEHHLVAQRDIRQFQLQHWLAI

Compound	Ki [1]	Ki [2]
R-4-(2,4-Difluoro-phenyl)-7-fluoro-2-(2-methyl-piperazin-1-yl)-quinazoline [Example 138]	35.4 nM	24.6 nM
C[C@H]1CNCCN1c1nc(-c2c(F)cccc2F)c2ccc(F)cc2n1 [Example 107, S-4-(2,6-Difluoro-phenyl)-7-fluoro-2-(2-methyl-piperazin-1-yl)-quinazoline]	47.3 nM	30.8 nM
CC[C@H]1CNCCN1c1nc(-c2c(F)cccc2F)c2ccccc2n1 [Example 164, S-4-(2,6-Difluoro-phenyl)-2-(2-ethyl-piperazin-1-yl)-quinazoline]	31.8 nM	18 nM
Fc1cccc(-c2nc(NC3CCNCC3)nc3ccccc23)c1F [Example 156, [4-(2,3-Difluoro-phenyl)-quinazolin-2-yl]-piperidin-4-yl-amine]	221 nM	6980 nM
COc1cccc(-c2nc(N3CCNCC3)nc3ccccc23)c1 [Example 90, 4-(3-methoxy-phenyl)-2-piperazin-1-yl-quinazoline]	14.6 nM	152 nM
Clc1ccc(Cl)c(-c2nc(N3CCNCC3)nc3ccccc23)c1 [Example 125, 4-(2,5-dichloro-phenyl)-2-piperazin-1-yl-quinazoline]	32.2 nM	636 nM
Cc1cc(F)ccc1-c1nc(N2CCNCC2)nc2cc(Cl)ccc12 [Example 118, 7-Chloro-4-(4-fluoro-2-methyl-phenyl)-2-piperazin-1-yl-quinazoline]	67.2 nM	49 nM
C[C@H]1CNCCN1c1nc(-c2cccc(F)c2F)c2ccccc2n1 [Example 88, S-4-(2,3-Difluoro-phenyl)-2-(2-methyl-piperazin-1-yl)-quinazoline]	18.9 nM	69.3 nM
Fc1ccc(-c2nc(N3CCNCC3)nc3cc(F)c(F)cc23)c(F)c1 [Example 147, 4-(2,4-Difluoro-phenyl)-6,7-difluoro-2-piperazin-1-yl-quinazoline]	28 nM	25.6 nM
Fc1ccc(-c2nc(NC3CCNCC3)nc3ccccc23)c(F)c1 [Example 154, [4-(2,4-Difluoro-phenyl)-quinazolin-2-yl]-piperidin-4-yl-amine]	58.1 nM	5370 nM
CC(C)[C@H]1CNCCN1c1nc(-c2cccc(F)c2F)c2ccccc2n1 [Example 166, S-4-(2,3-Difluoro-phenyl)-2-(2-isopropyl-piperazin-1-yl)-quinazoline]	79.7 nM	185 nM
C[C@H]1CNCCN1c1nc(-c2c(F)cccc2F)c2ccccc2n1 [Example 127, S-4-(2,6-Difluoro-phenyl)-2-(2-methyl-piperazin-1-yl)-quinazoline]	33.9 nM	58.6 nM
CNC1CCN(c2nc(-c3c(F)cccc3F)c3ccccc3n2)CC1 [Example 151, {1-[4-(2,6-Difluoro-phenyl)-quinazolin-2-yl]-piperidin-4-yl}-methyl-amine]	384 nM	5540 nM
Fc1ccccc1-c1nc(N2CCNCC2)nc2ccc(Cl)cc12 [Example 129, 4-(2-Fluoro-phenyl)-6-chloro-2-piperazin-1-yl-quinazoline]	25.6 nM	8.4 nM
Fc1cc2nc(N3CCNCC3)nc(-c3c(F)cccc3F)c2cc1F [Example 146, 4-(2,6-Difluoro-phenyl)-6,7-difluoro-2-piperazin-1-yl-quinazoline]	31.5 nM	19 nM
Fc1ccc(-c2nc(N[C@@H]3CCNC3)nc3cc(F)ccc23)c(F)c1 [Example 143, R-[4-(2,4-Difluoro-phenyl)-7-fluoro-quinazolin-2-yl]-pyrrolidin-3-yl-amine]	17.9 nM	9.3 nM

Compound	Ki [1]	Ki [2]
N[C@@H]1CCN(c2nc(-c3c(F)cccc3F)c3ccc(F)cc3n2)C1 [Example 93, R-1-[4-(2,6-Difluoro-phenyl)-7-fluoro-quinazolin-2-yl]-pyrrolidin-3-ylamine]	21.9 nM	50.6 nM
Clc1ccc(-c2nc(N3CCNCC3)nc3ccccc23)cc1Cl [Example 115, 4-(3,4-dichloro-phenyl)-2-piperazin-1-yl-quinazoline]	114 nM	332 nM
Fc1ccc2nc(N3CCNCC3)nc(-c3ccccc3)c2c1 [Example 92, 6-Fluoro-4-phenyl-2-piperazin-1-yl-quinazoline]	33.8 nM	53 nM
Brc1ccc2nc(N3CCNCC3)nc(-c3ccccc3)c2c1 [Example 91, 6-Bromo-4-phenyl-2-piperazin-1-yl-quinazoline]	211 nM	31.4 nM
CN1CCN(c2nc(-c3ccc(F)c(F)c3)c3ccc(F)cc3n2)CC1 [Example 112, 4-(3,4-Difluoro-phenyl)-7-fluoro-2-(4-methyl-piperazin-1-yl)-quinazoline]	707 nM	204 nM
NCCCNc1nc(-c2cccc(F)c2F)c2ccccc2n1 [Example 159, N1-[4-(2,3-Difluoro-phenyl)-quinazolin-2-yl]-propane-1,3-diamine]	123 nM	> 10000 nM
CNC1CCN(c2nc(-c3cccc(F)c3F)c3ccccc3n2)C1 (stereo not shown) [Example 157, {1-[4-(2,3-Difluoro-phenyl)-quinazolin-2-yl]-pyrrolidin-3-yl}-methyl-amine]	148 nM	4250 nM
CC(C)[C@H]1CNCCN1c1nc(-c2ccc(F)cc2F)c2ccccc2n1 [Example 167, S-4-(2,4-Difluoro-phenyl)-2-(2-isopropyl-piperazin-1-yl)-quinazoline]	66.1 nM	68.8 nM
Fc1ccc(-c2nc(NCC3CCNC3)nc3ccccc23)c(F)c1 (stereo not shown) [Example 155, [4-(2,4-Difluoro-phenyl)-quinazolin-2-yl]-pyrrolidin-3-ylmethyl-amine]	425 nM	> 10000 nM
Fc1cccc(F)c1-c1nc(NC2CCNCC2)nc2ccccc12 [Example 148, [4-(2,6-Difluoro-phenyl)-quinazolin-2-yl]-piperidin-4-yl-amine]	267 nM	4060 nM
Fc1ccc(-c2nc(NC3CNC3)nc3cc(F)ccc23)c(F)c1 [Example 141, Azetidin-3-yl-[4-(2,4-difluoro-phenyl)-7-fluoro-quinazolin-2-yl]-amine]	102 nM	1920 nM
Fc1ccc2c(-c3ccccc3)nc(N3CCNCC3)nc2c1 [Example 97, 7-Fluoro-4-phenyl-2-piperazin-1-yl-quinazoline]	13.8 nM	49.6 nM
Fc1ccc2c(-c3ccccc3)nc(N3CCNCC3)nc2c1F [Example 163, 7,8-Difluoro-4-phenyl-2-piperazin-1-yl-quinazoline]	12.6 nM	441 nM
Cc1cc(F)ccc1-c1nc(N2CCNCC2)nc2cc(F)ccc12 [Example 117, 7-Fluoro-4-(4-fluoro-2-methyl-phenyl)-2-piperazin-1-yl-quinazoline]	32.9 nM	114 nM
Fc1ccc(-c2nc(N3CCNCC3)nc3cc(F)ccc23)c(F)c1 [Example 140, 4-(2,4-Difluoro-phenyl)-7-fluoro-2-piperazin-1-yl-quinazoline]	28.3 nM	16.7 nM
C[C@H]1CNCCN1c1nc(-c2ccc(F)cc2F)c2ccccc2n1 [Example 82, S-4-(2,4-Difluoro-phenyl)-2-(2-methyl-piperazin-1-yl)-quinazoline]	19.4 nM	64.1 nM
